Measurements: the NIST ThermoML archive (doi:10.1016/j.jct.2005.08.002)

Assay: xn = mol fraction of the nth substance listed
Conditions: 101 kPa, Liquid; for viscosity: Capillary tube (Ostwald / Ubbelohde) method; for speed of sound: Sing-around technique in a fixed-path interferometer; for mass density: Vibrating tube method

CC1CCCC1 [methylcyclopentane] + CC(C)=O
Conditions | mass density, 293.15 K [kg/m3] | mass density, 298.15 K [kg/m3] | mass density, 303.15 K [kg/m3] | speed of sound, 293.15 K [m/s] | speed of sound, 298.15 K [m/s] | speed of sound, 303.15 K [m/s] | viscosity, 293.15 K [mPa·s] | viscosity, 298.15 K [mPa·s] | viscosity, 303.15 K [mPa·s]
x1 = 0.05 | 785.97 | 780.3 | 774.59 | 1177 | 1155 | 1132 | 0.323 | 0.308 | 0.294
x1 = 0.0985 | 781.33 | 775.71 | 770.04 | 1171 | 1148 | 1126 | 0.323 | 0.308 | 0.294
x1 = 0.2004 | 773.02 | 767.49 | 761.9 | 1162 | 1139 | 1116 | 0.333 | 0.317 | 0.302
x1 = 0.3009 | 766.13 | 760.68 | 755.18 | 1157 | 1134 | 1111 | 0.347 | 0.33 | 0.316
x1 = 0.4024 | 760.79 | 755.43 | 750.02 | 1156 | 1133 | 1110 | 0.361 | 0.344 | 0.328
x1 = 0.5029 | 756.32 | 751.06 | 745.74 | 1157 | 1134 | 1111 | 0.378 | 0.359 | 0.341
x1 = 0.6052 | 752.71 | 747.55 | 742.34 | 1161 | 1137 | 1114 | 0.396 | 0.375 | 0.355
x1 = 0.7112 | 749.82 | 744.77 | 739.67 | 1166 | 1143 | 1120 | 0.418 | 0.395 | 0.374
x1 = 0.8139 | 747.82 | 742.89 | 737.92 | 1174 | 1151 | 1127 | 0.438 | 0.415 | 0.393
x1 = 0.9084 | 746.75 | 741.94 | 737.09 | 1184 | 1161 | 1137 | 0.467 | 0.442 | 0.418
x1 = 0.954 | 746.58 | 741.83 | 737.04 | 1190 | 1167 | 1143 | 0.482 | 0.457 | 0.432
x1 = 1 | 746.64 | 741.94 | 737.21 | 1197 | 1174 | 1150 | 0.504 | 0.476 | 0.45

CC1CCCC1 [methylcyclopentane] + CCC(C)=O
Conditions | mass density, 293.15 K [kg/m3] | mass density, 298.15 K [kg/m3] | mass density, 303.15 K [kg/m3] | speed of sound, 293.15 K [m/s] | speed of sound, 298.15 K [m/s] | speed of sound, 303.15 K [m/s] | viscosity, 293.15 K [mPa·s] | viscosity, 298.15 K [mPa·s] | viscosity, 303.15 K [mPa·s]
x1 = 0.048 | 800.42 | 795.21 | 789.96 | 1208 | 1187 | 1165 | 0.397 | 0.378 | 0.36
x1 = 0.0982 | 795.99 | 790.8 | 785.57 | 1203 | 1181 | 1160 | 0.396 | 0.376 | 0.358
x1 = 0.1942 | 787.99 | 782.84 | 777.64 | 1195 | 1173 | 1151 | 0.397 | 0.377 | 0.358
x1 = 0.2911 | 780.72 | 775.6 | 770.44 | 1188 | 1166 | 1144 | 0.402 | 0.383 | 0.364
x1 = 0.398 | 773.4 | 768.32 | 763.2 | 1183 | 1161 | 1139 | 0.408 | 0.386 | 0.367
x1 = 0.5036 | 766.98 | 761.95 | 756.87 | 1181 | 1158 | 1136 | 0.416 | 0.394 | 0.374
x1 = 0.6033 | 761.6 | 756.62 | 751.6 | 1180 | 1157 | 1135 | 0.427 | 0.404 | 0.383
x1 = 0.6993 | 757.02 | 752.08 | 747.11 | 1181 | 1158 | 1135 | 0.439 | 0.415 | 0.394
x1 = 0.8045 | 752.53 | 747.68 | 742.78 | 1184 | 1161 | 1138 | 0.455 | 0.431 | 0.409
x1 = 0.906 | 749.02 | 744.24 | 739.42 | 1189 | 1166 | 1143 | 0.475 | 0.448 | 0.425
x1 = 0.9517 | 747.8 | 743.03 | 738.24 | 1193 | 1169 | 1146 | 0.487 | 0.46 | 0.436
x1 = 1 | 746.64 | 741.94 | 737.21 | 1197 | 1174 | 1150 | 0.504 | 0.476 | 0.45

CC1CCCC1 [methylcyclopentane] + CCCC(C)=O
Conditions | mass density, 293.15 K [kg/m3] | mass density, 298.15 K [kg/m3] | mass density, 303.15 K [kg/m3] | speed of sound, 293.15 K [m/s] | speed of sound, 298.15 K [m/s] | speed of sound, 303.15 K [m/s] | viscosity, 293.15 K [mPa·s] | viscosity, 298.15 K [mPa·s] | viscosity, 303.15 K [mPa·s]
x1 = 0.0493 | 802.59 | 797.76 | 792.9 | 1228 | 1207 | 1187 | 0.49 | 0.462 | 0.439
x1 = 0.0981 | 798.89 | 794.06 | 789.19 | 1224 | 1203 | 1182 | 0.485 | 0.459 | 0.434
x1 = 0.1993 | 791.61 | 786.76 | 781.89 | 1216 | 1194 | 1173 | 0.479 | 0.452 | 0.43
x1 = 0.3038 | 784.4 | 779.56 | 774.7 | 1207 | 1185 | 1164 | 0.473 | 0.449 | 0.425
x1 = 0.3972 | 778.23 | 773.38 | 768.51 | 1201 | 1179 | 1157 | 0.47 | 0.444 | 0.421
x1 = 0.5007 | 771.75 | 766.91 | 762.04 | 1196 | 1174 | 1152 | 0.469 | 0.444 | 0.42
x1 = 0.6069 | 765.58 | 760.74 | 755.87 | 1193 | 1171 | 1148 | 0.468 | 0.442 | 0.419
x1 = 0.6989 | 760.33 | 755.52 | 750.68 | 1191 | 1168 | 1146 | 0.47 | 0.444 | 0.422
x1 = 0.8052 | 754.83 | 750.05 | 745.24 | 1190 | 1168 | 1145 | 0.477 | 0.451 | 0.427
x1 = 0.9039 | 750.38 | 745.64 | 740.86 | 1193 | 1170 | 1147 | 0.487 | 0.458 | 0.433
x1 = 0.9508 | 748.6 | 743.88 | 739.12 | 1195 | 1172 | 1148 | 0.493 | 0.466 | 0.44
x1 = 1 | 746.64 | 741.94 | 737.21 | 1197 | 1174 | 1150 | 0.504 | 0.476 | 0.45
